Assay results from patent publication US9737515B2, “Compositions and methods for inhibiting tumor growth” (Consejo Nacional De Investigaciones Cientificas Y Tecnicas …, priority 2015, dated 2017).

How the values were obtained:
[1] = test system: MCF-7 Tet-Off/ACSL4 cells; experiment: BrdU incorporation cell proliferation assay in MCF-7 Tet-Off/ACSL4 cells; type: cell-based, human
Description: (§1) MCF-7 Tet-Off empty vector and MCF-7 Tet-Off/ACSL4 cells were plated at a density of 4000 cells/well in 96-well plates with 10% FBS-supplemented D-MEM medium and allowed to adhere overnight at 37° C. in a humidified, 5% CO2 atmosphere. The medium was then changed to serum-free medium. After 24 h, the cells were switched to 10% FBS-supplemented D-MEM medium and incubated with rapamycin (10 nM) and/or rosiglitazone (75 μM) for 96 h. Subsequently, cell proliferation was measured by the bromo-deoxyuridine (BrdU) incorporation assay.
Following the same procedure as that described in Example 1 above, the cells were switched to 10% FBS-supplemented D-MEM medium and incubated with rosiglitazone (10 or 25 μM) and/or 4-hydroxytamoxifen (4-OHTAM, 2.5 or 5.0 μM). Both rosiglitazone and 4-hydroxytamoxifen were tested alone at each of the concentrations used, and in all the possible combinations with each other (see FIG. 6A).

[2] = test system: MCF-7 Tet-Off empty vector cells; experiment: BrdU incorporation cell proliferation assay in MCF-7 Tet-Off empty vector cells; type: cell-based; details: Homo sapiens, MCF7, 96 h, vs control cells
Description: as §1

Molecule: 4-hydroxytamoxifen [4-OHT]
- % inhibition of cell proliferation ([1]; 4-OHT 2.5 μM, 96 h): 0.802%
- % inhibition of cell proliferation ([1]; 4-OHT 5 μM, 96 h): 3.464%
- inhibition of cell proliferation (in words) ([1]; rosiglitazone 10 or 25 μM and/or 4-OHTAM 2.5 or 5 μM, 96 h, FIG. 6A): did not produce a significant inhibition

Molecule: CO[C@H]1C[C@@H]2CC[C@@H](C)[C@@](O)(O2)C(=O)C(=O)N2CCCC[C@H]2C(=O)O[C@H]([C@H](C)C[C@@H]2CC[C@@H](O)[C@H](OC)C2)CC(=O)[C@H](C)/C=C(\C)[C@@H](O)[C@@H](OC)C(=O)[C@H](C)C[C@H](C)/C=C/C=C/C=C/1C [Rapamycin]
- inhibition at 0.01 µM ([2]; Rapamycin 10 nM): 12.2%
- inhibition at 0.01 µM ([1]; Homo sapiens, MCF7, 96 h, Rapamycin 10 nM, vs control cells): 25%
- % inhibition of cell proliferation ([1]; Rapamycin 10 nM, 96 h, vs control cells): 22.159%

Molecule: CN(CCOc1ccc(CC2SC(=O)NC2=O)cc1)c1ccccn1 (stereo not shown) [Rosiglitazone]
- inhibition at 75 µM ([2]; Rosiglitazone 75 μM): 2.81%
- inhibition at 10 µM ([1]; Homo sapiens, MCF7, 96 h, Rosiglitazone 10 μM): 1.88%
- inhibition at 25 µM ([1]; Homo sapiens, MCF7, 96 h, Rosiglitazone 25 μM): 7.97%
- inhibition at 75 µM ([1]; Homo sapiens, MCF7, 96 h, Rosiglitazone 75 μM, vs control cells): 28.5%
